Patent US9480679B2, “Methods for treating malaria, tuberculosis and MAC diseases” (priority 2009, dated 2016)
In brackets after ≈: the same amount, converted by molar mass. Several values for one entry are separate records, joined by “and”; a condition that tells them apart may be missing. Equal values may be shown once. Read-outs that look alike come from different tables or passages of the source.

How the values were obtained:
P. falciparum NF54 [1] = assay: In vitro P. falciparum 120 hour assay (96+24); type: cell-based; conditions: Plasmodium falciparum
Protocol: EXAMPLE. In vitro and in vivo activity against different species of Plasmodium parasites. CEM-101 was tested against intra-erythrocytic forms of P. falciparum derived from asynchronous cultures of the strain […]. Parasite growth over 120 h was measured by the incorporation of radiolabelled [^3H]hypoxanthine (in hypoxanthine free culture medium) added after 96 h of drug incubation and 24 h prior to the termination of the test. CEM-101 was followed for 120 h. CEM-101 has delayed activity when compared to other agents.
In vitro P. falciparum data for CEM-101 in the 120 h Assay (96+24)

P. falciparum NF54 [2] = assay: In vitro P. falciparum 72 hour assay (48+24); type: cell-based; conditions: Plasmodium falciparum
Protocol: EXAMPLE. In vitro and in vivo activity against different species of Plasmodium parasites. CEM-101 was tested against intra-erythrocytic forms of P. falciparum derived from asynchronous cultures of the strain […]. […] CEM-101 was followed for 120 h. CEM-101 has delayed activity when compared to other agents.
In vitro P. falciparum data for CEM-101 in the 72 h Assay (48+24)

P. berghei = assay: Murine P. berghei model, oral 1x or 4x 100 mg/kg; type: in vivo; conditions: mice; for Parasitized RBC over 100 (made by FACS): individual animals
Protocol: EXAMPLE. CEM-101 activity in infected mice.
EXAMPLE. CEM-101 was tested in the murine P. berghei model as described by Vennerstrom et al. Nature 430(7002):900-904 (2004), the disclosure of which is incorporated herein by reference.

[3] = system: replicating M. tuberculosis; conditions: reported values; cited from earlier work
M. avium = conditions: Bermudez 2001; cited from earlier work
M. tuberculosis [4] = conditions: 100 mg/kg once daily for 3 weeks (Zhu 2008); cited from earlier work
M. tuberculosis [5] = conditions: reported in vitro activity; cited from earlier work
M. avium LPR ATCC 49601 = assay: Murine model of M. avium infection, CFU in spleens and lungs; type: in vivo; conditions: mice, 200 mg/kg orally 5 days/week for 4 weeks; P<0.05
M. avium complex = assay: Broth dilution MIC versus M. avium complex isolates; type: cell-based, Mycobacterium avium
[6] = system: replicating M. tuberculosis; assay: Aero RLU (Relative Light Units under aerobic conditions), replicating culture; type: cell-based; conditions: two experiments
[7] = system: replicating M. tuberculosis; assay: Microplate Alamar Blue Assay (MABA), replicating culture; type: cell-based; conditions: two experiments
[8] = NF54, 120 h assay (96+24), read-out: IC50 NF54
[9] = NF54, 120 hour assay (96+24), read-out: IC50 NF54 Test 1
[10] = NF54, 120 hour assay (96+24), read-out: IC50 NF54 Test 2
[11] = NF54, 120 hour assay (96+24), read-out: IC50 NF54 Test 3

C[C@H]1[C@H](OC(=O)CCC(=O)O)O[C@@H]2O[C@@]3(C)CC[C@H]4[C@H](C)CC[C@@H]1[C@@]24OO3 [Artesunate]
IC50 (P. falciparum NF54 [1]; NF54, 120 h, read-out: IC50 NF54): 3.3 ng/mL (≈ 0.00858 µM)
IC50 (P. falciparum NF54 [1]; NF54, 120 h, read-out: IC50 NF54 Test 1): 4.2 ng/mL (≈ 0.0109 µM)
IC50 (P. falciparum NF54 [1]; NF54, 120 h, read-out: IC50 NF54 Test 2): 3.9 ng/mL (≈ 0.0101 µM)
IC50 (P. falciparum NF54 [1]; NF54, 120 h, read-out: IC50 NF54 Test 3): 3.3 ng/mL (≈ 0.00858 µM)
IC50 (P. falciparum NF54 [2]; NF54, 72 h, read-out: IC50 NF54 TEST 1): 3 ng/mL (≈ 0.0078 µM)
IC50 (P. falciparum NF54 [2]; NF54, 72 h, read-out: IC50 NF54 TEST 2): 3.2 ng/mL (≈ 0.00832 µM)
IC50 (P. falciparum NF54 [2]; NF54, 72 h, read-out: IC50 NF54 TEST 3): 3 ng/mL (≈ 0.0078 µM)
IC50 (P. falciparum NF54 [2]; NF54, 72 h, read-out: IC50 NF54 TEST 4): 2.8 ng/mL (≈ 0.00728 µM)
IC50 (P. falciparum NF54 [2]; NF54, 72 h, read-out: IC50 NF54 Test 1): 3 ng/mL (≈ 0.0078 µM)
IC50 (P. falciparum NF54 [2]; NF54, 72 h, read-out: IC50 NF54 Test 2): 3.2 ng/mL (≈ 0.00832 µM)
IC50 (P. falciparum NF54 [2]; NF54, 72 h, read-out: IC50 NF54 Test 3): 3 ng/mL (≈ 0.0078 µM)
IC50 (P. falciparum NF54 [2]; NF54, 72 h, read-out: IC50 NF54 Test 4): 2.8 ng/mL (≈ 0.00728 µM)

CC[C@H]1OC(=O)[C@H](C)[C@@H](O[C@H]2C[C@@](C)(OC)[C@@H](O)[C@H](C)O2)[C@H](C)[C@@H](O[C@@H]2O[C@H](C)C[C@H](N(C)C)[C@H]2O)[C@](C)(O)C[C@@H](C)CN(C)[C@H](C)[C@@H](O)[C@]1(C)O [Azithromycin, reference compound]
Activity (%) (P. berghei; 1 × 100 mg/kg oral, DMSO): 70.39%
Survival (P. berghei; 1 × 100 mg/kg oral, DMSO): 14.0 days
Activity (%) (P. berghei; 1 × 100 mg/kg oral, HPMC): 65.19%
Survival (P. berghei; 1 × 100 mg/kg oral, HPMC): 14.0 days
Activity (%) (P. berghei; 4 × 100 mg/kg oral, DMSO): 99.11%
Cure (%) (P. berghei; 4 × 100 mg/kg oral, DMSO): 0%
Survival (P. berghei; 4 × 100 mg/kg oral, DMSO, survivors sacrificed on Day 31): 30.0 days
Activity (%) (P. berghei; 4 × 100 mg/kg oral, HPMC): 99.13%
Cure (%) (P. berghei; 4 × 100 mg/kg oral, HPMC): 0%
Survival (P. berghei; 4 × 100 mg/kg oral, HPMC, survivors sacrificed on Day 31): 24.0 days
blood from treated animals parasite free or not (P. berghei; 4× 100 mg/kg p.o.): is not
Visual Observation (parasites in blood) (P. berghei; 4× 100 mg/kg p.o., DMSO): pos
Parasitized RBC over 100 (made by FACS) (P. berghei; 4× 100 mg/kg p.o., DMSO, 100 mg/kg): 34.32 and 2.20 and 36.31
Visual Observation (parasites in blood) (P. berghei; 4× 100 mg/kg p.o., HPMC): pos
Parasitized RBC over 100 (made by FACS) (P. berghei; 4× 100 mg/kg p.o., HPMC): 74.04

CC[C@H]1OC(=O)[C@H](C)C(=O)[C@H](C)[C@@H](O[C@@H]2O[C@H](C)C[C@H](N(C)C)[C@H]2O)[C@](C)(OC/C=C/c2cnc3ccccc3c2)C[C@@H](C)C(=O)[C@H](C)[C@H]2NC(=O)O[C@@]21C [Cethromycin]
MABA MIC [3]: 4000 ng/mL
bactericidal activity against M. avium (M. avium): lack of significant bactericidal activity
reduction of CFU in the lungs of mice (M. tuberculosis [4]): failed to significantly reduce CFU

CCN(CC)CCCC(C)Nc1ccnc2cc(Cl)ccc12 (stereo not shown) [Chloroquine]
IC50 (P. falciparum NF54 [1]; [8]): 4.7 ng/mL (≈ 0.0147 µM)
IC50 (P. falciparum NF54 [1]; [9]): 4.6 ng/mL (≈ 0.0144 µM)
IC50 (P. falciparum NF54 [1]; [10]): 4.6 ng/mL (≈ 0.0144 µM)
IC50 (P. falciparum NF54 [1]; [11]): 4.7 ng/mL (≈ 0.0147 µM)
IC50 (P. falciparum NF54 [2]; NF54, 72 h assay (48+24), read-out: IC50 NF54 TEST 1): 4.4 ng/mL (≈ 0.0138 µM)
IC50 (P. falciparum NF54 [2]; NF54, 72 h assay (48+24), read-out: IC50 NF54 TEST 2): 5.4 ng/mL (≈ 0.0169 µM)
IC50 (P. falciparum NF54 [2]; NF54, 72 h assay (48+24), read-out: IC50 NF54 TEST 3): 4.4 ng/mL (≈ 0.0138 µM)
IC50 (P. falciparum NF54 [2]; NF54, 72 h assay (48+24), read-out: IC50 NF54 TEST 4): 4.8 ng/mL (≈ 0.015 µM)
IC50 (P. falciparum NF54 [2]; NF54, 72 hour assay (48+24), read-out: IC50 NF54 Test 1): 4.4 ng/mL (≈ 0.0138 µM)
IC50 (P. falciparum NF54 [2]; NF54, 72 hour assay (48+24), read-out: IC50 NF54 Test 2): 5.4 ng/mL (≈ 0.0169 µM)
IC50 (P. falciparum NF54 [2]; NF54, 72 hour assay (48+24), read-out: IC50 NF54 Test 3): 4.4 ng/mL (≈ 0.0138 µM)
IC50 (P. falciparum NF54 [2]; NF54, 72 hour assay (48+24), read-out: IC50 NF54 Test 4): 4.8 ng/mL (≈ 0.015 µM)

CC[C@H]1OC(=O)[C@H](C)[C@@H](O[C@H]2C[C@@](C)(OC)[C@@H](O)[C@H](C)O2)[C@H](C)[C@@H](O[C@@H]2O[C@H](C)C[C@H](N(C)C)[C@H]2O)[C@](C)(OC)C[C@@H](C)C(=O)[C@H](C)[C@@H](O)[C@]1(C)O [Clarithromycin, reference compound]
MIC (M. tuberculosis [5]): 8000 ng/mL (≈ 10.7 µM)
reduction in growth of MAC LPR in the spleens and lungs compared to the late controls (M. avium LPR ATCC 49601): significant
MABA MIC [3]: 8000 ng/mL
MIC (M. avium complex; Mycobacterium avium): 128000 ng/mL (≈ 171 µM)
MIC (M. avium complex; Mycobacterium avium, isolate MAC 101, clarithromycin susceptible, read-out: MIC): 125 ng/mL (≈ 0.167 µM)
MIC (M. avium complex; Mycobacterium avium, isolate MAC 103, clarithromycin resistant, read-out: MIC): 64000 ng/mL (≈ 85.6 µM)
MIC (M. avium complex; Mycobacterium avium, isolate MAC 108, clarithromycin resistant, read-out: MIC): 64000 ng/mL (≈ 85.6 µM)
MIC (M. avium complex; Mycobacterium avium, isolate MAC 110, clarithromycin resistant, read-out: MIC): 64000 ng/mL (≈ 85.6 µM)
MIC (M. avium complex; Mycobacterium avium, isolate MAC 216, clarithromycin resistant, read-out: MIC): 32000 ng/mL (≈ 42.8 µM)
MIC (M. avium complex; Mycobacterium avium, isolate MAC 309, clarithromycin resistant, read-out: MIC): 64000 ng/mL (≈ 85.6 µM)
MIC (M. avium complex; Mycobacterium avium, isolate MAC 320, clarithromycin resistant, read-out: MIC): 64000 ng/mL (≈ 85.6 µM)
MIC (M. avium complex; Mycobacterium avium, isolate MAC 623, clarithromycin resistant, read-out: MIC): 64000 ng/mL (≈ 85.6 µM)
MIC (M. avium complex; Mycobacterium avium, isolate MAC 625, clarithromycin resistant, read-out: MIC): 64000 ng/mL (≈ 85.6 µM)
MIC (M. avium complex; Mycobacterium avium, isolate MAC 643, clarithromycin resistant, read-out: MIC): 64000 ng/mL (≈ 85.6 µM)
MIC (M. avium complex; Mycobacterium avium, isolate MAC 1408, clarithromycin susceptible, read-out: MIC): 250 ng/mL (≈ 0.334 µM)
MIC (M. avium complex; Mycobacterium avium, isolate MAC 3404.4, clarithromycin susceptible, read-out: MIC): 125 ng/mL (≈ 0.167 µM)
MIC (M. avium complex; Mycobacterium avium, isolate MAC 9141, clarithromycin susceptible, read-out: MIC): 250 ng/mL (≈ 0.334 µM)
MIC (M. avium complex; Mycobacterium avium, isolate MAC FAR, clarithromycin susceptible, read-out: MIC): 125 ng/mL (≈ 0.167 µM)
MIC (M. avium complex; Mycobacterium avium, isolate MAC GRL, clarithromycin susceptible, read-out: MIC): 2000 ng/mL (≈ 2.67 µM)
MIC (M. avium complex; Mycobacterium avium, isolate MAC KAL, clarithromycin susceptible, read-out: MIC): 8000 ng/mL (≈ 10.7 µM)
MIC (M. avium complex; Mycobacterium avium, isolate MAC KZL, clarithromycin susceptible, read-out: MIC): 1000 ng/mL (≈ 1.34 µM)
MIC (M. avium complex; Mycobacterium avium, isolate MAC Pry, clarithromycin resistant, read-out: MIC): 64000 ng/mL (≈ 85.6 µM)
MIC (M. avium complex; Mycobacterium avium, isolate MAC SMT, clarithromycin susceptible, read-out: MIC): 250 ng/mL (≈ 0.334 µM)
MIC (M. avium complex; Mycobacterium avium, isolate MAC TEL, clarithromycin susceptible, read-out: MIC): 2000 ng/mL (≈ 2.67 µM)
MIC (M. avium complex; Mycobacterium avium, isolate MAC TRY, clarithromycin susceptible, read-out: MIC): 500 ng/mL (≈ 0.668 µM)
MIC (M. avium complex; isolate MAC 224, clarithromycin resistant): 128000 ng/mL (≈ 171 µM)
Aero RLU [6]: 22.46 µM and 18.82 µM
MIC ([7]; Mycobacterium tuberculosis): 14.5 µM (≈ 10.9 µg/mL)
MIC [7]: 13.34 µM (≈ 9.98 µg/mL)

CCC[C@@H]1C[C@@H](C(=O)N[C@@H]([C@H]2O[C@H](SC)[C@H](O)[C@@H](O)[C@H]2O)[C@H](C)Cl)N(C)C1 [Clindamycin]
Cure (%) (P. berghei; 4 × 100 mg/kg oral, DMSO): 0%
Cure (%) (P. berghei; 4 × 100 mg/kg oral, HPMC): 0%
IC50 (P. falciparum NF54 [1]; [8]): 5.3 ng/mL (≈ 0.0125 µM)
IC50 (P. falciparum NF54 [1]; [9]): < 7.8 ng/mL
IC50 (P. falciparum NF54 [1]; [10]): 5.3 ng/mL (≈ 0.0125 µM)
IC50 (P. falciparum NF54 [1]; [11]): 5.3 ng/mL (≈ 0.0125 µM)

CC[C@H]1OC(=O)[C@H](C)C(=O)[C@H](C)[C@@H](O[C@@H]2O[C@H](C)C[C@H](N(C)C)[C@H]2O)[C@](C)(OC)C[C@@H](C)C(=O)[C@H](C)[C@H]2N(CCCCn3cnc(-c4cccnc4)c3)C(=O)O[C@]12C [telithromycin]
MABA MIC [3]: 128000 ng/mL
bactericidal activity against M. avium (M. avium): lack of significant bactericidal activity
